Laboratory results published in ChEMBL document CHEMBL1201862, “PubChem BioAssay data set” (2004).
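Tested at 5 concentrations; 48 h exposure; 96-well plates; endpoints linearly interpolated, else capped at highest concentration. GI50 = concentration required for 50% inhibition of growth.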 Activity calls are given as the source filed them. No stated cut-off is given here; in the data, active = GI50 up to about 1.1 µM and inactive = higher.

Experiments:
Assay in all cases: inhibition of tumour cell growth, NCI panel, 48 h
MOLT-4 = system: MOLT-4
NCI-H522 = system: NCI-H522
SK-MEL-5 = system: SK-MEL-5
SK-MEL-2 = system: SK-MEL-2
HCT-15 = system: HCT-15
HOP-92 = system: HOP-92
OVCAR-4 = system: OVCAR-4
ACHN = system: ACHN
SF-268 = system: SF-268
Malme-3M = system: Malme-3M
SN12C = system: SN12C
HT-29 = system: HT-29
SF-295 = system: SF-295
UACC-62 = system: UACC-62
SK-OV-3 = system: SK-OV-3
UACC-257 = system: UACC-257
SK-MEL-28 = system: SK-MEL-28
NCI-H226 = system: NCI-H226
DU-145 = system: DU-145
786-0 = system: 786-0

| SMILES | GI50 (MOLT-4) | GI50 (NCI-H522) | GI50 (SK-MEL-5) | GI50 (SK-MEL-2) | GI50 (HCT-15) | GI50 (HOP-92) | GI50 (OVCAR-4) | GI50 (ACHN) | GI50 (SF-268) | GI50 (Malme-3M) | GI50 (SN12C) | GI50 (HT-29) | GI50 (SF-295) | GI50 (UACC-62) | GI50 (SK-OV-3) | GI50 (UACC-257) | GI50 (SK-MEL-28) | GI50 (NCI-H226) | GI50 (DU-145) | GI50 (786-0) |
| --- | --- | --- | --- | --- | --- | --- | --- | --- | --- | --- | --- | --- | --- | --- | --- | --- | --- | --- | --- | --- |
| C/C(CC1C2CCCC1C2)=N\NC(N)=O (stereo not given) | > 100 µM (inactive) | > 100 µM (inactive) | > 100 µM (inactive) | > 100 µM (inactive) | > 100 µM | > 100 µM (inactive) | > 100 µM (inactive) | > 100 µM (inactive) | > 100 µM (inactive) | > 100 µM (inactive) | > 100 µM (inactive) | > 100 µM (inactive) | > 100 µM (inactive) | > 100 µM (inactive) | > 100 µM (inactive) | > 100 µM (inactive) | > 100 µM (inactive) | > 100 µM (inactive) | > 100 µM (inactive) | > 100 µM (inactive) |
| CN(C)CCCCN1c2ccccc2Sc2ccc(N=[N+]=[N-])cc21 | 1.39 µM (inactive) | 4.09 µM (inactive) | 1.67 µM (inactive) | 3.08 µM (inactive) | 3.72 µM | 3.56 µM (inactive) | 6.43 µM (inactive) | 3.2 µM (inactive) | 5.97 µM (inactive) | 1.76 µM (inactive) | 8.43 µM (inactive) | 2.22 µM (inactive) | 5.66 µM (inactive) | 1.88 µM (inactive) | 12.9 µM (inactive) | 1.92 µM (inactive) | 1.91 µM (inactive) | 6.11 µM (inactive) | 5.7 µM (inactive) | 8.69 µM (inactive) |
| Cc1ccc2c(c1)/C(=N/Nc1ccccc1[N+](=O)[O-])C(=O)N2 | > 100 µM (inactive) | 2.31 µM (inactive) | 7.35 µM (inactive) | > 100 µM (inactive) | > 100 µM | 2.92 µM (inactive) | 2.37 µM (inactive) |  | 3.4 µM (inactive) | 3.48 µM (inactive) | 3.82 µM (inactive) | 31.6 µM (inactive) | 14.5 µM (inactive) | 35.5 µM (inactive) | 4.68 µM (inactive) | 13.9 µM (inactive) | > 100 µM (inactive) | 8.41 µM (inactive) | 25 µM (inactive) | 2.11 µM (inactive) |
| COc1cc(/C=C/C(=O)Oc2ccc(NC(C)=O)cc2)ccc1C(=O)OCc1ccccc1 | > 85.3 µM (inactive) | > 85.9 µM (inactive) | > 100 µM (inactive) | 53.1 µM (inactive) | > 100 µM | 74.3 µM (inactive) | > 96.4 µM (inactive) | > 73.8 µM (inactive) | 56.6 µM (inactive) | > 93.5 µM (inactive) | > 92.5 µM (inactive) | > 100 µM (inactive) | 40.6 µM (inactive) | 69.2 µM (inactive) | 48.4 µM (inactive) | > 100 µM (inactive) | > 100 µM (inactive) | > 100 µM (inactive) | > 77.3 µM (inactive) | 39.6 µM (inactive) |
| CCCCCCC/C=C1\CCC(CN(C)C)C1=O (stereo not given) | 2.47 µM (inactive) | 5.48 µM (inactive) | 18.7 µM (inactive) | 15.9 µM (inactive) | 8.36 µM | 17.3 µM (inactive) | 16.6 µM (inactive) | 17.6 µM (inactive) | 17.4 µM (inactive) | 10.8 µM (inactive) | 9.1 µM (inactive) | 14.6 µM (inactive) | 16.3 µM (inactive) | 14.6 µM (inactive) | 23.7 µM (inactive) | 15.1 µM (inactive) | 16.9 µM (inactive) | 22.4 µM (inactive) | 14.7 µM (inactive) | 1.76 µM (inactive) |
| CC1CCC2(CC1)NC1=C(CC(C)CC1)C1=C2CC(C)CC1 (stereo not given) | 7.14 µM (inactive) | 19.3 µM (inactive) | 12.1 µM (inactive) | 21.8 µM (inactive) | 18.1 µM | 18.3 µM (inactive) | 22.2 µM (inactive) | 23.3 µM (inactive) |  | 26.9 µM (inactive) |  | 16.7 µM (inactive) | 18.1 µM (inactive) | > 10 µM (inactive) | 38.8 µM (inactive) | 25.3 µM (inactive) | 17.7 µM (inactive) | 16.7 µM (inactive) | 38.3 µM (inactive) | 19.5 µM (inactive) |
| CC(C)=CCC/C(C)=C/CC/C(C)=C/CC/C(=C/CC/C(C)=C\CC/C(C)=C/CC/C(C)=C/CC/C(C)=C/Cc1cc(O)ccc1O)CO |  | 1.57 µM (inactive) | 2.48 µM (inactive) | 3.32 µM (inactive) | 7.11 µM | 9.59 µM (inactive) | 2.51 µM (inactive) | 12.4 µM (inactive) | 2.67 µM (inactive) | 2.7 µM (inactive) | 17.6 µM (inactive) | 4.52 µM (inactive) | 1.84 µM (inactive) | 1.18 µM (inactive) | 10.9 µM (inactive) | 3.07 µM (inactive) | 2.29 µM (inactive) | 2.29 µM (inactive) | 32.6 µM (inactive) | 2.98 µM (inactive) |
| CN(C)c1nc2sc3c(c2c(=O)o1)CCCC3 | 52.2 µM (inactive) | 25.4 µM (inactive) | 23.8 µM (inactive) | 25.3 µM (inactive) | 33.3 µM | 36.9 µM (inactive) | 27.9 µM (inactive) | 34.1 µM (inactive) |  | 25.9 µM (inactive) | 36.9 µM (inactive) | 21 µM (inactive) | 31.6 µM (inactive) | 41.8 µM (inactive) | 31.6 µM (inactive) | 73.8 µM (inactive) | 71.3 µM (inactive) | 15.3 µM (inactive) | 27.8 µM (inactive) | 45.4 µM (inactive) |
